Assay results reported in patent US5049552A, “Compositions containing hexadecylphosphocholine and use thereof” (Max-Planck-Gesellschaft fur Foerderung der Wissenschaften …, priority 1985, dated 1991).
Like-named read-outs stand apart in the source and are kept apart here.

Legend:
[1] = system: methylnitrosourea-induced mammary carcinoma; assay: methylnitrosourea-induced mammary carcinoma of the rat, in vivo
Description: (§1) Hexadecylphosphocholine is a known substance. […] Therefore, in spite of an anti-tumor action, the median survival time in comparison with the control was shortened by 72% in the case of octadecylphosphocholine-treated animals.

tumors = assay: anti-tumor action and toxicity, general statement (homologous alkyl compounds); conditions: for anti-tumor action / toxicity: general statement
[2] = Pharmazie 37, 1982, pages 706-707; cited from earlier work
[3] = subacute toxicity during a treatment of 5 weeks (mortality, median survival time); format: in vivo, rat
Description: as §1

[4] = system: 7,12-dimethylbenzanthracene-induced mammary carcinoma; assay: 7,12-dimethylbenzanthracene-induced mammary carcinoma of the rat; format: in vivo
[5] = system: chemically induced mammary carcinomas; assay: chemically induced mammary carcinoma of the rat (7,12-dimethylbenzanthracene or methylnitrosourea), in vivo; conditions: for minimal effective dose / effect on tumor growth / general dose range for the action / general dose range for the action, especially: rat; for minimal effective dose: read-out: lowest already effective dose
Description: For oral administration, hexadecylphosphocholine is used, for example, in the form of a potable solution. As carriers there are suitable, for example, milk, cocoa, fruit juice or drinking water. The preparation of such a potable solution takes place, for example, by dilution of a concentrated alcoholic solution of hexadecylphosphocholine with water or another of the previously mentioned agents. […] In the case of the tumor model used for these experiments, it is a question of a so-called hard model. This means that findings obtained with this model can also be transmitted to the human situation.

L1210 = L1210 colony experiment in vitro; format: cell-based
[6] = 5 weeks, daily dose 77 μmole/kg rat orally

CCCCCCCCCCCCCCCCOP(=O)([O-])OCC[N+](C)(C)C [hexadecylphosphocholine]
action on methylnitrosourea-induced mammary carcinoma ([1]; rat): good action | anti-tumor action (tumors): practically useful good anti-tumor action | toxicity (tumors): sufficient anti-tumor action in non-toxic doses | anti-tumor action (tumors; listed as Hexadecylphosphocholine): excellent anti-tumor action | synergistic increase of antitumor action with alkylglycerols / glycerol ethers of formula I (tumors; hexadecylphosphocholine together with alkylglycerol): synergistic action increase of the antitumor action | lysing and fusogenic action [2]: a lysing and fusogenic action | mortality in comparison with octadecylphosphocholine-treated animals [3, 6]: lower by a half | increase of the median survival time in comparison with the controls ([3]; 5 weeks, highly significant): 26% | chronic toxicity ([3]; rat, oral): absence of a chronic toxicity | action on 7,12-dimethylbenzanthracene-induced mammary carcinoma [4]: good action | minimal effective dose ([5]; iv, intravenously): 5 mg/kg | minimal effective dose ([5]; po, orally): 5 mg/kg | effect on tumor growth ([5]; 10 mg./kg. body weight): cessation of growth of the tumors | effect on tumor growth ([5]; doses higher than 10 mg./kg.): complete disappearance of the growths | general dose range for the action ([5]; intravenously): 5 to 50 mg/kg | general dose range for the action, especially ([5]; intravenously): 15 to 32 mg/kg | general dose range for the action ([5]; orally): 5 to 50 mg/kg | general dose range for the action, especially ([5]; orally): 15 to 32 mg/kg | remission of chemically induced mammary carcinomas ([5]; rats, daily doses of 20, 40 and 60 mg./kg., oral): complete remission | compatibility versus 1-octadecyl-2-methyl-rac-glycero-3-phosphocholine ([5]; rats, oral): better compatible | effectiveness versus 1-octadecyl-2-methyl-rac-glycero-3-phosphocholine ([5]; rats, oral): better effective

CCCCCCCCCCCCCCCCCCOP(=O)([O-])OCC[N+](C)(C)C [octadecylphosphocholine, reference compound]
anti-tumor action (tumors): anti-tumor effective | toxicity (tumors): far too toxic | shortening of median survival time in comparison with the control [3, 6]: 72% | mortality at 840 h ([3]; in vivo, po, 77 umol/kg, 5 weeks, daily dose 77 μmole/kg rat orally, read-out: mortality (of all animals)): 80%

CCCCCCCCCCCCCCOP(=O)([O-])OCC[N+](C)(C)C [tetradecylphosphocholine, reference compound]
anti-tumor action ([1]; in vivo, autochthonous methylnitrosourea-induced mammary carcinoma of the rat): practically no anti-tumor action | anti-tumor action (L1210): practically no anti-tumor action
